Experiments:
[1] = molecular target: T1, Human Indoleamine 2,3-dioxygenase (IDO) (Homo sapiens, UniProt P14902); test: Human IDO enzymatic assay (kynurenine level); format: biochemical; conditions: 6 nM IDO, 10 μM L-Trp; geometric mean; read-out: IDO1 GMean: IC50 (μM) (Biochemical Assay)
T1 construct: His tag (N); made in house; host or cells: E. coli
Outline: (§1)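 Reactions were stopped with TCA, converting N-formylkynurenine to kynurenine for quantitation, with IC50 by nonlinear regression. IDO: 6 nM enzyme, 10 μM L-Trp, 20 min RT. TDO: 1 nM enzyme, 350 μM L-Trp, 70 min RT, both in pH 6.5 buffer.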

[2] = molecular target: T2, Human Tryptophan 2,3-dioxygenase (TDO) (Homo sapiens, UniProt P48775); test: Human TDO enzymatic assay (kynurenine level); format: biochemical; conditions: 1 nM TDO, 350 μM L-Trp; geometric mean; read-out: TDO GMean: IC50 (μM) (Biochemical Assay)
T2 construct: His tag (N); made in house; host or cells: E. coli
T2 sequence (P48775 whole entry): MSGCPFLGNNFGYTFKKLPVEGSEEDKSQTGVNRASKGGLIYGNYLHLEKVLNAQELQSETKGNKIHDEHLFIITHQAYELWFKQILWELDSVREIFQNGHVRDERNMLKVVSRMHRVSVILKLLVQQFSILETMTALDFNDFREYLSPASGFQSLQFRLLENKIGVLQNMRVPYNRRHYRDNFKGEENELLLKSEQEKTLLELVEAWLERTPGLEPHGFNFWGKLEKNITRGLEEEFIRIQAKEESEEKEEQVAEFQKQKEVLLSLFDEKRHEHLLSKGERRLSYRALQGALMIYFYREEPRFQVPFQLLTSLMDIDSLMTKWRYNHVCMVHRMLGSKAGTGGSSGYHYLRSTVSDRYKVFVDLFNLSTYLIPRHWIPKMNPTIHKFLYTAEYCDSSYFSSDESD
Outline: as §1

[3] = molecular target: T3, human IDO (IDO1-expressing HEK293 cells) (Homo sapiens, UniProt P14902); test: Cell based kynurenine assay, IDO1-expressing HEK293 cell clones; conditions: IDO1-expressing HEK293 cells, 24 hours, geometric mean; read-out: HEK293 IDO1 Kynurenine GMean IC50 (μM) (Cellular Assay)
T3 construct: expressed in transfected cells
T3 sequence (P14902 whole entry): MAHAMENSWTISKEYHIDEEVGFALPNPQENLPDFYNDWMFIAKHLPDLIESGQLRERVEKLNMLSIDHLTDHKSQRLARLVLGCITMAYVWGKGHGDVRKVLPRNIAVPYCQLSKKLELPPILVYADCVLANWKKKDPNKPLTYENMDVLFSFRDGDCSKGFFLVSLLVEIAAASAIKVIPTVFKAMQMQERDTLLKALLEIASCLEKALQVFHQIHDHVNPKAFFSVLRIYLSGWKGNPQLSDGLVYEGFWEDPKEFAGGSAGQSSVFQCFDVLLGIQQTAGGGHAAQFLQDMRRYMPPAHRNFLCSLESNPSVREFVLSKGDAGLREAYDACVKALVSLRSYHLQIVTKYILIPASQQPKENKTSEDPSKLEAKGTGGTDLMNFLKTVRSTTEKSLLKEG
Outline: (§2)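 Kynurenine in culture supernatant read after 24 h compound exposure of HEK293 cells stably expressing human IDO1 or TDO. IC50 from nonlinear regression of % inhibition relative to 0.2% DMSO cell (high) and media-only (low) controls.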

[4] = molecular target: T4, human TDO (TDO-expressing HEK293 cells) (Homo sapiens, UniProt P48775); test: Cell based kynurenine assay, TDO-expressing HEK293 cell clones; conditions: TDO-expressing HEK293 cells, 24 hours, geometric mean; read-out: HEK293 TDO Kynurenine GMean IC50 (μM) (Cellular Assay)
T4 construct: expressed in transfected cells
T4 sequence (P48775 whole entry): as the sequence (P48775 whole entry) above
Outline: as §2

T1 sequence (P14902 whole entry): as the sequence (P14902 whole entry) above

IC50 [1] [µM] | IC50 [2] [µM] | IC50 [3] [µM] | IC50 [4] [µM] | Compound
0.0001 to 10 | 0.0001 to 10 | 0.0001 to 10 | 0.0001 to 10 | CC(C)(C1CCN(C(=O)C2CCOCC2)CC1)[C@H](O)c1cc(Cl)cc2cn[nH]c12 [Compound P-0546, (S)-(4-(1-(5-chloro-1H-indazol-7-yl)-1-hydroxy-2-methylpropan-2-yl)piperidin-1-yl)(tetrahydro-2H-pyran-4-yl)methanone]
0.0001 to 10 | 0.0001 to 10 | 0.0001 to 10 | 0.0001 to 10 | CN(C)CC(=O)N1CCC(C(C)(C)[C@H](O)c2cc(Cl)cc3cn[nH]c23)CC1 [Compound P-0547, (S)-1-(4-(1-(5-chloro-1H-indazol-7-yl)-1-hydroxy-2-methylpropan-2-yl)piperidin-1-yl)-2-(dimethylamino) ethan-1-one]
0.0001 to 10 | 0.0001 to 10 | 0.0001 to 10 | 0.0001 to 10 | CC(C)(C1CCN(C(=O)c2ccc(Cl)cn2)CC1)[C@H](O)c1cc(Cl)cc2cn[nH]c12 [Compound P-0548, (S)-(4-(1-(5-chloro-1H-indazol-7-yl)-1-hydroxy-2-methylpropan-2-yl)piperidin-1-yl)(5-chloropyridin-2-yl)methanone]
0.0001 to 10 | 0.0001 to 10 | 0.0001 to 10 | 0.0001 to 10 | CCNC(=O)N1CCC(C(C)(C)[C@H](O)c2cc(Cl)cc3cn[nH]c23)CC1 [Compound P-0550, (S)-4-(1-(5-chloro-1H-indazol-7-yl)-1-hydroxy-2-methylpropan-2-yl)-N-ethylpiperidine-1-carboxamide]
0.0001 to 10 | 0.0001 to 10 | 0.0001 to 10 | 0.0001 to 10 | CC(C)(C1CCN(C(=O)NC2CC2)CC1)[C@H](O)c1cc(Cl)cc2cn[nH]c12 [Compound P-0551, (S)-4-(1-(5-chloro-1H-indazol-7-yl)-1-hydroxy-2-methylpropan-2-yl)-N-cyclopropylpiperidine-1-carboxamide]
0.0001 to 10 | 0.0001 to 10 | 0.0001 to 10 | 0.0001 to 10 | CC(C)(C1CCN(C(=O)NC2CCC2)CC1)[C@H](O)c1cc(Cl)cc2cn[nH]c12 [Compound P-0552, (S)-4-(1-(5-chloro-1H-indazol-7-yl)-1-hydroxy-2-methylpropan-2-yl)-N-cyclobutylpiperidine-1-carboxamide]
0.0001 to 10 | 0.0001 to 10 | 0.0001 to 10 | 0.0001 to 10 | COCCCNC(=O)N1CCC(C(C)(C)[C@H](O)c2cc(Cl)cc3cn[nH]c23)CC1 [Compound P-0553, (S)-4-(1-(5-chloro-1H-indazol-7-yl)-1-hydroxy-2-methylpropan-2-yl)-N-(3-methoxypropyl) piperidine-1-carboxamide]
0.0001 to 10 | 0.0001 to 10 | 0.0001 to 10 | 0.0001 to 10 | CC(C)(C1CCN(C(=O)Nc2cccnc2)CC1)[C@H](O)c1cc(Cl)cc2cn[nH]c12 [Compound P-0554, (S)-4-(1-(5-chloro-1H-indazol-7-yl)-1-hydroxy-2-methylpropan-2-yl)-N-(pyridin-3-yl)piperidine-1-carboxamide]
0.0001 to 10 | 0.0001 to 10 | 0.0001 to 10 | 0.0001 to 10 | CC(C)(C1CCN(C(=O)NC(=O)c2ccccc2)CC1)[C@H](O)c1cc(Cl)cc2cn[nH]c12 [Compound P-0555, (S)-N-benzoyl-4-(1-(5-chloro-1H-indazol-7-yl)-1-hydroxy-2-methylpropan-2-yl)piperidine-1-carboxamide]
0.0001 to 10 | 0.0001 to 10 | 0.0001 to 10 | 0.0001 to 10 | CC(C)(C1CCN(C(=O)NCCS(C)(=O)=O)CC1)[C@H](O)c1cc(Cl)cc2cn[nH]c12 [Compound P-0556, (S)-4-(1-(5-chloro-1H-indazol-7-yl)-1-hydroxy-2-methylpropan-2-yl)-N-(2-(methylsulfonyl)ethyl)piperidine-1-carboxamide]
0.0001 to 10 | 0.0001 to 10 | 0.0001 to 10 | 0.0001 to 10 | CCS(=O)(=O)N1CCC(C(C)(C)[C@H](O)c2cc(Cl)cc3cn[nH]c23)CC1 [Compound P-0557, (S)-1-(5-chloro-1H-indazol-7-yl)-2-(1-(ethylsulfonyl)piperidin-4-yl)-2-methylpropan-1-ol]
0.0001 to 10 | 0.0001 to 10 | 0.0001 to 10 | 0.0001 to 10 | CC(C)(C1CCN(C(=O)Nc2ccc(F)nc2)CC1)C(O)c1cc(Cl)cc2cn[nH]c12 (centres unmarked) [Compound P-0558, 4-(1-(5-chloro-1H-indazol-7-yl)-1-hydroxy-2-methylpropan-2-yl)-N-(6-fluoropyridin-3-yl)piperidine-1-carboxamide]
0.0001 to 10 | 0.0001 to 10 | 0.0001 to 10 | 0.0001 to 10 | CC(C)(C1CCN(C(=O)Nc2ccc(F)nc2)CC1)[C@H](O)c1cc(Cl)cc2cn[nH]c12 [Compound P-0559, (S)-4-(1-(5-chloro-1H-indazol-7-yl)-1-hydroxy-2-methylpropan-2-yl)-N-(6-fluoropyridin-3-yl)piperidine-1-carboxamide]
0.0001 to 10 | 0.0001 to 10 | 0.0001 to 10 | 0.0001 to 10 | CC(C)(C1CCN(C(=O)NCC2CC2)CC1)[C@H](O)c1cc(Cl)cc2cn[nH]c12 [Compound P-0560, (S)-4-(1-(5-chloro-1H-indazol-7-yl)-1-hydroxy-2-methylpropan-2-yl)-N-(cyclopropylmethyl) piperidine-1-carboxamide]
0.0001 to 10 | 0.0001 to 10 | 0.0001 to 10 | 0.0001 to 10 | CC(C)(C1CCN(C(=O)NCCC(F)(F)F)CC1)[C@H](O)c1cc(Cl)cc2cn[nH]c12 [Compound P-0561, (S)-4-(1-(5-chloro-1H-indazol-7-yl)-1-hydroxy-2-methylpropan-2-yl)-N-(3,3,3-trifluoropropyl) piperidine-1-carboxamide]
0.0001 to 10 | 0.0001 to 10 | 0.0001 to 10 | 0.0001 to 10 | CC(C)(C1CCN(C(=O)NCC(F)(F)F)CC1)[C@H](O)c1cc(Cl)cc2cn[nH]c12 [Compound P-0562, (S)-4-(1-(5-chloro-1H-indazol-7-yl)-1-hydroxy-2-methylpropan-2-yl)-N-(2,2,2-trifluoroethyl) piperidine-1-carboxamide]
0.0001 to 10 | 0.0001 to 10 | 0.0001 to 10 | 0.0001 to 10 | CC(C)(C1CCN(C(=O)Nc2ccccc2)CC1)[C@H](O)c1cc(Cl)cc2cn[nH]c12 [Compound P-0563, (S)-4-(1-(5-chloro-1H-indazol-7-yl)-1-hydroxy-2-methylpropan-2-yl)-N-phenylpiperidine-1-carboxamide]
0.0001 to 10 | 0.0001 to 10 | 0.0001 to 10 | 0.0001 to 10 | CC(C)CNC(=O)N1CCC(C(C)(C)[C@H](O)c2cc(Cl)cc3cn[nH]c23)CC1 [Compound P-0564, (S)-4-(1-(5-chloro-1H-indazol-7-yl)-1-hydroxy-2-methylpropan-2-yl)-N-isobutylpiperidine-1-carboxamide]
0.0001 to 10 | 0.0001 to 10 | 0.0001 to 10 | 0.0001 to 10 | CC(C)(C1CCN(C(=O)NC[C@H]2CCCO2)CC1)[C@H](O)c1cc(Cl)cc2cn[nH]c12 [Compound P-0565, 4-((S)-1-(5-chloro-1H-indazol-7-yl)-1-hydroxy-2-methylpropan-2-yl)-N-(((R)-tetrahydrofuran-2-yl)methyl)piperidine-1-carboxamide]
0.0001 to 10 | 0.0001 to 10 | 0.0001 to 10 | 0.0001 to 10 | CC(C)(C1CCN(C(=O)NC[C@@H]2CCCO2)CC1)[C@H](O)c1cc(Cl)cc2cn[nH]c12 [Compound P-0566, 4-((S)-1-(5-chloro-1H-indazol-7-yl)-1-hydroxy-2-methylpropan-2-yl)-N-(((S)-tetrahydrofuran-2-yl)methyl)piperidine-1-carboxamide]
0.0001 to 10 | 0.0001 to 10 | 0.0001 to 10 | 0.0001 to 10 | CCCNC(=O)N1CCC(C(C)(C)[C@H](O)c2cc(Cl)cc3cn[nH]c23)CC1 [Compound P-0567, (S)-4-(1-(5-chloro-1H-indazol-7-yl)-1-hydroxy-2-methylpropan-2-yl)-N-propylpiperidine-1-carboxamide]
0.0001 to 10 | 0.0001 to 10 | 0.0001 to 10 | 0.0001 to 10 | C#CCNC(=O)N1CCC(C(C)(C)[C@H](O)c2cc(Cl)cc3cn[nH]c23)CC1 [Compound P-0568, (S)-4-(1-(5-chloro-1H-indazol-7-yl)-1-hydroxy-2-methylpropan-2-yl)-N-(prop-2-yn-1-yl)piperidine-1-carboxamide]
0.0001 to 10 | 0.0001 to 10 | 0.0001 to 10 | 0.0001 to 10 | CC(C)(C1CCN(C(=O)Nc2cccc(C#N)c2)CC1)[C@H](O)c1cc(Cl)cc2cn[nH]c12 [Compound P-0569, (S)-4-(1-(5-chloro-1H-indazol-7-yl)-1-hydroxy-2-methylpropan-2-yl)-N-(3-cyanophenyl) piperidine-1-carboxamide]

— patent US10508085B2, “Compounds and methods for IDO and TDO modulation, and indications therefor” (Plexxikon Inc., priority 2016, dated 2019)
